Results on four compounds are retold here after patent US20250129082A1, “N-1 Triazole Substituted Imidazoquinolines, Conjugates Thereof, and Methods” (Solventumn Intellectual Properties Company, priority 2021, published 2025).

What all share (format): cell-based
Assay [1] concerns Human peripheral blood mononuclear cells (PBMC). As to the kind of experiment: Cytokine induction in human cells (PBMC), Ella Simple Plex ELISA. As to conditions: 21-24 hours, tested 0.01-30 micromolar; for MEC to Induce Cytokine, IFN-alpha: lowest concentration inducing IFN-alpha at least 2× negative control; for MEC to Induce Cytokine, IFN-gamma: lowest concentration inducing IFN-gamma at least 2× negative control; for MEC to Induce Cytokine, TNF-alpha: lowest concentration inducing TNF-alpha at least 2× negative control. The protocol:
Whole blood was obtained from healthy human donors and collected by venipuncture into vacutainer tubes or syringes containing EDTA. Human peripheral blood mononuclear cells (PBMC) were purified from the whole blood by density gradient centrifugation. Histopaque 1077 (15 mL, Sigma-Aldrich) was transferred to 6×50 mL sterile polypropylene conical tubes. The Histopaque was overlayed with 15-25 mL of blood diluted 1:2 in Hank's Balanced Salts Solution (HBSS) (Gibco, Life Technologies, Grand Island, NY). The tubes were then centrifuged at 1370 rpm for 30 minutes at 20° C., with no brake (400λg, GH 3.8A Rotor).
The interface (buffy coat) containing the PBMC was collected and placed in a new sterile 50 mL conical polypropylene centrifuge tube. The PBMC were mixed with an equal volume of HBSS (about 20 mL from the interface and about 20 mL of HBSS), and then centrifuged at 1090 rpm, 10 minutes, 20° C., with brake (270λg, GH 3.8A Rotor). After completing centrifugation, the cells were resuspended in 2-3 mL ACK Red blood cell lysis buffer (ammonium chloride potassium solution, Gibco, Life Technologies) and incubated for 2-5 minutes at 20° C. Next, HBSS (40 mL) was added to the cells, and the sample was centrifuged at 270×g for 10 minutes at 20° C. The supernatant was decanted, and the cell pellet was resuspended in 5 mL AIM V Medium (Gibco, Life Technologies). Cell aggregates and debris were removed by filtering the cell solution through a BD Falcon 70 micron nylon cell strainer (BD Biosciences, San Jose, CA).
The number of viable cells was determined by counting with a Moxi Z instrument (ORFLO Technologies, Ketchum, ID) or by using a hemacytometer. For determining cell viability with a hemacytometer, the cells were diluted 1/10 in 0.4% trypan blue and HBSS (specifically, 50 microliter of trypan blue+40 microliter of HBSS+10 microliter of cell solution were added to a microfuge tube and mixed). Ten microliters of the diluted cells were then applied to the hemacytometer, and the number of viable PBMC were determined by microscopy.
The PBMC sample was then resuspended in 96-well plates at a concentration of 8×10^5 cells/well in 0.1 mL of AIM-V medium. Each compound was solubilized in DMSO to create a 3 mM stock solution. The stock solution was then further diluted with AIM-V medium to prepare the serial dilutions. The diluted compound (100 microliters) was then transferred to the PBMCs to produce testing sets with final compound concentrations of 30, 10, 3.3, 1.1, 0.37, 0.12, 0.04, 0.01 micromolar. The plates also had both positive and negative controls. The negative control wells contained only AIM-V medium with no example compound. The positive control wells contained a control set of imiquimod serially diluted to concentrations of 30, 10, 3.3, 1.1, 0.37, 0.12, 0.04, 0.01 micromolar. The concentrations used in the control set were selected to match the concentrations used in the testing set. The plates were then cultured at 37° C./5% CO2 for 21-24 hours. Cell-free supernatants were harvested by centrifuging the 96-well plates at 2100 rpm, 23° C. for 10 minutes. Approximately 160 microliters of the supernatant was then stored in a NUNC 96-well plate, covered with the compression cap and stored at −80° C. until the cytokine analysis was done.
Cytokine levels (human IFN-alpha multisubtype, human IFN-gamma, and human TNF-alpha) were measured in picograms/mL by Ella Simple Plex ELISA (ProteinSimple, San Jose, CA) according to the manufacturer's instructions.
Specifically, the minimum effective concentration of each compound (micromolar) was determined as the lowest concentration of the compound that induced a measured cytokine response at a level ([…]) that was at least 2× greater than that observed with the negative control wells.

The target of the next assay is T1, human TLR7 (Homo sapiens, UniProt Q9NYK1).
T1 construct: host or cells: HEK293 (HEK-BLUE-hTLR7)
T1 sequence (Q9NYK1 27-1049): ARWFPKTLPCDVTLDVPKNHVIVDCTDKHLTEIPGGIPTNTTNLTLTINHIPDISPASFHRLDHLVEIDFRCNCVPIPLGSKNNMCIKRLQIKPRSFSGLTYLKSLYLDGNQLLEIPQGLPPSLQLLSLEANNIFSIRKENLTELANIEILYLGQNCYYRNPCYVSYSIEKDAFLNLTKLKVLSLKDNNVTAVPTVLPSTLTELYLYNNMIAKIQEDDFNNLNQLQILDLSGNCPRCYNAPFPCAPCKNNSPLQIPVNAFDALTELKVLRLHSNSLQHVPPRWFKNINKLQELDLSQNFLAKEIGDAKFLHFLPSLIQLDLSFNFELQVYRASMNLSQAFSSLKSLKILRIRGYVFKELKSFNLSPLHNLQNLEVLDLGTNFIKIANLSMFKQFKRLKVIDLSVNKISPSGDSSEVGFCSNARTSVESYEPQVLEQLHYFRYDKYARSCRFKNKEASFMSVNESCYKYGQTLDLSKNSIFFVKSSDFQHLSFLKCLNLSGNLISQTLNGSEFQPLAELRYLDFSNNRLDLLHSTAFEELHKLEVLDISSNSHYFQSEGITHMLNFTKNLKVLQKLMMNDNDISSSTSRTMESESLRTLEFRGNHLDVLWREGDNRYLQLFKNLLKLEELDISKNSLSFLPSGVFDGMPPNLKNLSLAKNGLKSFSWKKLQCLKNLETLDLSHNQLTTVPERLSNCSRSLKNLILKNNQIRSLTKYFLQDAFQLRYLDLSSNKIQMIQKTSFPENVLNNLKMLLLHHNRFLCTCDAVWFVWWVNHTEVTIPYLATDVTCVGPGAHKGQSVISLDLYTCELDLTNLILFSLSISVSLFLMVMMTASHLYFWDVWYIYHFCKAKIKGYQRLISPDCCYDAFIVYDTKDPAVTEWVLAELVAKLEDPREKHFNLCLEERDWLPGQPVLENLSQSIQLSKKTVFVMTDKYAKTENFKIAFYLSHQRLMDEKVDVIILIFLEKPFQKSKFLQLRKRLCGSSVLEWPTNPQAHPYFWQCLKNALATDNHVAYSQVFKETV
As to the kind of experiment: TLR activation and specificity, HEK-BLUE-hTLR7 SEAP reporter cells. The following applies: 16-20 hours, lowest concentration giving SEAP response at least 2× vehicle control, tested 0.01-30 micromolar. The protocol: (§1) HEK-BLUE-hTLR7 or hTLR8 reporter cells were obtained from InvivoGen, San Diego, CA. According to the manufacturer's description, these reporter cells were prepared by co-transfection of HEK293 cells with an inducible secreted embryonic alkaline phosphatase (SEAP) reporter gene and either the human TLR7 or TLR8 gene. The SEAP reporter gene was placed under the control of an IFN-β minimal promoter fused to five NF-κB and AP-1-binding sites. In the presence of a TLR ligand, activation of NF-κB and AP-1 occurs, resulting in a corresponding increase in SEAP levels.
(§2) In the assay, the HEK cells were grown and maintained using standard cell culture techniques in a growth medium that contained Dulbecco's Modified Eagle Medium (ThermoFisher Scientific Incorporated, Waltham, MA) supplemented with 1% penicillin/streptomycin and 10% heat-inactivated Gibco fetal bovine serum (ThermoFisher Scientific). Each compound was solubilized in DMSO to create a 3 mM stock solution. The stock solution was then further diluted with the growth medium to prepare serial dilutions. Each test compound was tested at a concentration of 30, 10, 3.3, 1.1, 0.37, 0.12, 0.04, and 0.01 micromolar using a 96-well format with 5×10^4 cells and 200 microliters of growth medium per well.
(§3) For each compound, hTLR7, hTLR8, and their respective null control HEK cells were screened. DMSO serially diluted into the growth medium served as the vehicle control. Cell culture supernatants containing the SEAP reporter were collected after an incubation period of 16-20 hours in a cell culture incubator (37° C. and 5% CO2), and either analyzed immediately or stored at −80° C. SEAP levels were measured using the colorimetric enzyme assay (QUANTI-BLUE (InvivoGen) according to manufacturer's instructions.
(§4) Specifically, the minimum effective concentration of each compound (micromolar) was determined as the lowest concentration of the compound that produced a SEAP expression response at least 2× greater than that observed with the vehicle control wells.

For the next assay, the target named is T2, human TLR8 (Homo sapiens, UniProt Q9NR97).
T2 construct: host or cells: HEK293 (HEK-BLUE-hTLR8)
T2 sequence (Q9NR97 27-1041): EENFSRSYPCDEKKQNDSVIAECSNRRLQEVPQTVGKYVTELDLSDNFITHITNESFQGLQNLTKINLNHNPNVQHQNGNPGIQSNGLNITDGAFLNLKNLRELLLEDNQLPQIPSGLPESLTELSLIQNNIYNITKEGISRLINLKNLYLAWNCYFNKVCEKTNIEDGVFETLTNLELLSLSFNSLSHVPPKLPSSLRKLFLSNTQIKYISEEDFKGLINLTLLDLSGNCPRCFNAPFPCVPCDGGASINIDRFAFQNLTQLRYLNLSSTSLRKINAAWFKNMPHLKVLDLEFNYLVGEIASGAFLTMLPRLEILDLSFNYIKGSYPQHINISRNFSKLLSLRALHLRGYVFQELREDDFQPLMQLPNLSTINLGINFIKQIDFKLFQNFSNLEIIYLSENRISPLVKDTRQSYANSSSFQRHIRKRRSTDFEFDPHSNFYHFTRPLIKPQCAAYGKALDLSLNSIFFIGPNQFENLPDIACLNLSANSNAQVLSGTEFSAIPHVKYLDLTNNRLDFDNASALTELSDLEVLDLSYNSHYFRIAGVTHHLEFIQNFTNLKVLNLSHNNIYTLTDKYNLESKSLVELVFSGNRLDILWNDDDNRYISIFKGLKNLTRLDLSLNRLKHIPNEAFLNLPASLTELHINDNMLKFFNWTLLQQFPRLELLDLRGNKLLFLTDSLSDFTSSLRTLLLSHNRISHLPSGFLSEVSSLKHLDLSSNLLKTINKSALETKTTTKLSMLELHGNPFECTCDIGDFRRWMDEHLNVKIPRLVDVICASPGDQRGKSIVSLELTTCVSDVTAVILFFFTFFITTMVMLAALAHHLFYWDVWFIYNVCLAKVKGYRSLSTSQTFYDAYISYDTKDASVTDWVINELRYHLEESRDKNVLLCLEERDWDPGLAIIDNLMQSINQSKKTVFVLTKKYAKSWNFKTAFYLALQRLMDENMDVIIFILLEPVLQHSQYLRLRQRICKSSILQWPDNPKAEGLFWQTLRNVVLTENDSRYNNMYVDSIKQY
As to the kind of experiment: TLR activation and specificity, HEK-BLUE-hTLR8 SEAP reporter cells. The following applies: 16-20 hours, lowest concentration giving SEAP response at least 2× vehicle control, tested 0.01-30 micromolar. The protocol: as §1, §2, §3, §4

The structures appear in SMILES notation.

On to `CCOC[C@H](Cc1ccc(OCCN=[N+]=[N-])cc1)n1cnc2c(N)nc3ccccc3c21` [Example 1, (S)-1-(1-(4-(2-azidoethoxy)phenyl)-3-ethoxypropan-2-yl)-1H-imidazo[4,5-c]quinolin-4-amine], for which, in assay [1], the “MEC to Induce Cytokine, IFN-alpha” value was ≤0.01 µM; the “MEC to Induce Cytokine, IFN-gamma” value is ≤0.01 µM; the “MEC to Induce Cytokine, TNF-alpha” value was ≤0.01 µM. Moreover, at human TLR7, the “MEC to Produce TLR Activation, TLR 7” value was ≤0.01 µM. For the same compound, at human TLR8, the “MEC to Produce TLR Activation, TLR 8” value stood at 10 µM.
On to `CCOC[C@H](Cc1ccc(OCCn2cc(-c3ccccc3)nn2)cc1)n1cnc2c(N)nc3ccccc3c21` [Example 2, (S)-1-(1-ethoxy-3-(4-(2-(4-phenyl-1H-1,2,3-triazol-1-yl)ethoxy)phenyl)propan-2-yl)-1H-imidazo[4,5-c]quinolin-4-amine], for which, in assay [1], the “MEC to Induce Cytokine, IFN-alpha” value was ≤0.01 µM; the “MEC to Induce Cytokine, IFN-gamma” value was ≤0.01 µM; the “MEC to Induce Cytokine, TNF-alpha” value is ≤0.01 µM. Further, the “MEC to Produce TLR Activation, TLR 7” value on human TLR7 is ≤0.01 µM. For the same compound, the “MEC to Produce TLR Activation, TLR 8” value on human TLR8 came out at 3.3 µM.
With `CCOC[C@H](Cc1ccc(OCCCCCCCCCCCN=[N+]=[N-])cc1)n1cnc2c(N)nc3ccccc3c21` [Example 3, (S)-1-(1-(4-((11-azidoundecyl)oxy)phenyl)-3-ethoxypropan-2-yl)-1H-imidazo[4,5-c]quinolin-4-amine], in assay [1], the “MEC to Induce Cytokine, IFN-alpha” value amounted to 3.3 µM; the “MEC to Induce Cytokine, IFN-gamma” value was >30 µM; the “MEC to Induce Cytokine, TNF-alpha” value came to 1.1 µM. For the same compound, the “MEC to Produce TLR Activation, TLR 7” value at human TLR7 was found to be 1.1 µM. In addition, at human TLR8, the “MEC to Produce TLR Activation, TLR 8” value is >30 µM.
Turning to `CCOC[C@H](Cc1ccc(OCCCCCCCCCCCn2cc(-c3ccccc3)nn2)cc1)n1cnc2c(N)nc3ccccc3c21` [Example 4, (S)-1-(1-ethoxy-3-(4-((11-(4-phenyl-1H-1,2,3-triazol-1-yl)undecyl)oxy)phenyl)propan-2-yl)-1H-imidazo[4,5-c]quinolin-4-amine], in assay [1], the “MEC to Induce Cytokine, IFN-alpha” value was found to be 3.3 µM; the “MEC to Induce Cytokine, IFN-gamma” value was determined as 10 µM; the “MEC to Induce Cytokine, TNF-alpha” value worked out at 3.3 µM. Further, the “MEC to Produce TLR Activation, TLR 7” value at human TLR7 stood at 3.3 µM. For the same compound, the “MEC to Produce TLR Activation, TLR 8” value at human TLR8 was found to be 3.3 µM.
